From patent US20180206495A1, “SUBSTITUTED ARYL AND HETEROARYL CARBOXYLIC ACID HYDRAZIDES OR SALTS THEREOF AND USE THEREOF TO INCREASE STRESS TOLERANCE IN PLANTS” (BAYER CROPSCIENCE AKTIENGESELLSCHAFT, priority 2015, published 2018)

Key:
Brassica napus = test: In vivo analyses Part A: drought stress, spray application, visual damage scoring, Brassica napus
Protocol: (§1) Seeds of monocotyledonous and dicotyledonous crop plants were sown in sandy loam in wood-fiber or plastic pots, covered with soil or sand and cultivated in a greenhouse under good growth conditions. The trial plants were treated at the early leaf stage (BBCH10-BBCH13). To assure uniform water supply before commencement of stress, the potted plants were supplied with water by dam irrigation prior to substance application. The inventive compounds formulated in the form of wettable powders (WP) were sprayed onto the green parts of the plants as an aqueous suspension at an equivalent water application rate of 600 l/ha with addition of 0.2% wetting agent (e.g. agrotin). Substance application was followed immediately by stress treatment of the plants. For this purpose, the wood-fiber pots were transferred in plastic inserts in order to prevent them from subsequently drying out too quickly. Drought stress was induced by gradual drying out under the following conditions: “Day”: 14 hours with illumination at ˜26-30° C. “Night”: 10 hours without illumination at ˜18-20° C. The duration of the respective stress phases was guided mainly by the condition of the stressed control plants. It was ended (by re-irrigating and transfer to a greenhouse with good growth conditions) as soon as irreversible damage was observed on the stressed control plants. The end of the stress phase was followed by an about 4-7-day recovery phase, during which the plants were once again kept under good growth conditions in a greenhouse. The duration of the recovery phase was guided mainly by when the trial plants had attained a state which enabled visual scoring of potential effects, and is therefore variable. Once this juncture was reached, the intensities of damage were scored visually in comparison to untreated, unstressed controls of the same age. The damage intensity was at first assessed in per cent. These values were then used to calculate the efficacy of the test compounds by the following formula: [formula] EF: Efficacy DIs: Damage intensity of the stressed control plants DIt: Damage intensity of the stressed plants treated with test compound The values reported in tables A-1 to A-3 below are mean values from at least one trial with at least two repeats, showing the effects of selected compounds of the general formula (I) under drought stress on various crop plants.

Triticum aestivum [1] = test: In vivo analyses Part A: drought stress, spray application, visual damage scoring, Triticum aestivum
Protocol: as §1

Zea mays = test: In vivo analyses Part A: drought stress, spray application, visual damage scoring, Zea mays
Protocol: as §1

Triticum aestivum [2] = test: In vivo analyses Part B: drought stress, spray application, appearance vs stressed control in categories, Triticum aestivum; set-up: key: 0: no positive effect; +: slight positive effect; ++: clear positive effect; +++: strong positive effect; settings: dosage 250 g/ha
Protocol: Seeds of monocotyledonous and dicotyledonous crop plants were sown in sandy loam in plastic pots, covered with soil or sand and cultivated in a greenhouse under good growth conditions. The test plants are treated at the early leaf stage (BBCH10-BBCH13). To assure uniform water supply before commencement of stress, the potted plants were supplied with water by dam irrigation prior to substance application. The inventive compounds were first formulated as wettable powders (WP) or dissolved in a solvent mixture. The further dilution was effected with water supplemented with 0.2% wetting agent (e.g. agrotin). The finished spray liquor was sprayed onto the green parts of the plant at an equivalent water application rate of 600 l/ha. Substance application was followed immediately by stress treatment of the plants. Drought stress was induced by gradual drying out under the following conditions: “Day”: 14 hours with illumination at ˜26-30° C. “Night”: 10 hours without illumination at ˜18-20° C. The duration of the respective stress phases was guided mainly by the condition of the stressed control plants. It was ended (by re-irrigating and transfer to a greenhouse with good growth conditions) as soon as irreversible damage was observed on the stressed control plants. The end of the stress phase was followed by an about 4-7-day recovery phase, during which the plants were once again kept under good growth conditions in a greenhouse. The duration of the recovery phase was guided mainly by when the trial plants had attained a state which enabled visual scoring of potential effects, and was therefore variable. Once this juncture had been reached, the appearance of the plants treated with test substances was recorded in comparison to the stressed control plants by the following categories: • 0 no positive effect • + slight positive effect • ++ clear positive effect • +++ strong positive effect In order to rule out any influence on the effects observed by any fungicidal or insecticidal action of the test compounds, it was additionally ensured that the tests proceeded without fungal infection or insect infestation. The values reported in tables B-1 and B-2 below are mean values of the results from at least three repeats. Effects of selected compounds of the general formula (I) under drought stress according to the following tables B-1 and B-2: […]

CN(C)N(Cc1nccc(Cl)c1Cl)C(=O)c1ccccc1C(F)(F)F [A1-40, N-[(3,4-Dichloropyridin-2-yl)methyl]-N′,N′-dimethyl-2-(trifluoromethyl)benzohydrazide]
EF [%] (BRSNS) (Brassica napus; dosage 2.5 g/ha): >5% | EF [%] (TRZAS) (Triticum aestivum [1]; dosage 250 g/ha): >5% | EF [%] (ZEAMX) (Zea mays; dosage 250 g/ha): >5% | Effect (TRZAS) (Triticum aestivum [2]): ++

CN(C)N(Cc1ccc(Br)cc1F)C(=O)c1ccc(Cl)cc1Cl [A12-44]
EF [%] (BRSNS) (Brassica napus; dosage 25 g/ha): >5% | EF [%] (TRZAS) (Triticum aestivum [1]; dosage 250 g/ha): >5% | EF [%] (ZEAMX) (Zea mays; dosage 250 g/ha): >5%

Cc1ccc(C(F)(F)F)c(C(=O)N(Cc2ccccn2)N(C)C)c1 [A13-21]
EF [%] (BRSNS) (Brassica napus; dosage 25 g/ha): >5% | EF [%] (TRZAS) (Triticum aestivum [1]; dosage 250 g/ha): >5% | EF [%] (ZEAMX) (Zea mays; dosage 250 g/ha): >5%

CN(C)N(Cc1cccc([N+](=O)[O-])c1)C(=O)c1ccncc1 [C1-111]
EF [%] (BRSNS) (Brassica napus; dosage 2.5 g/ha): >5% | EF [%] (TRZAS) (Triticum aestivum [1]; dosage 25 g/ha): >5% | EF [%] (ZEAMX) (Zea mays; dosage 25 g/ha): >5%
